Patent US6217879A, “Enzyme-decomposed materials of laver and uses thereof” (Shirako Co., Ltd., priority 1998, dated 2001)

Assay: Anti-oxidant action, linoleic acid peroxide number by rhodan iron method
Settings: 3 mg α-tocopherol, 50° C.
Method: The respective fractions were measured for anti-oxidant activity in the following manner.
This solution was sealed in a test tube equipped with a screw and left in a thermostatic chamber at 50° C., and the peroxide number of the linoleic acid was measured every 48 hours by the rhodan iron method. […] The number of days elapsed until the absorbance at 500 nm reached 0.35 was assumed to be induction period (days).

Compound: Cc1c(C)c2c(c(C)c1O)CCC(C)(CCCC(C)CCCC(C)CCCC(C)C)O2 (stereo not drawn) [α-tocopherol]
- Induction period (days until absorbance at 500 nm reached 0.35): 8 days
